How the values were obtained:
Experiment in all cases: relative viability (nuclei count vs DMSO), 5 days (fraction); higher = more cells survive
NCI-H522 = system: NCI-H522
Procedure, shortened: (§1)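 A single step with final 0.05% Triton X-100, 1% formaldehyde and 1 ug/ml Hoechst fixed the cells and stained nuclei 5 days after treatment. Lung cancer cell lines in 1536-well plates had been treated by pin tool the day after seeding with one drug alone or a fixed anchor-drug dose plus five library-drug doses (not always all listed) in √10 steps, and nuclei were counted on 4× images. Relative viability is the ratio of nuclei in treated wells to nuclei in vehicle wells, taken as the median of duplicate plates.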

NCI-H1648 = system: NCI-H1648
Procedure, shortened: as §1

NCI-H2342 = system: NCI-H2342
Procedure, shortened: as §1

NCI-H1563 = system: NCI-H1563
Procedure, shortened: as §1

SW 900 = system: SW 900
Procedure, shortened: as §1

A549 = system: A549
Procedure, shortened: as §1

IA-LM = system: IA-LM
Procedure, shortened: as §1

NCI-H1299 = system: NCI-H1299
Procedure, shortened: as §1

Calu-6 = system: Calu-6
Procedure, shortened: as §1

NCI-H1703 = system: NCI-H1703
Procedure, shortened: as §1

EBC-1 = system: EBC-1
Procedure, shortened: as §1

`O=c1[nH]c2ccccc2n1C1CCN(CCCC(c2ccc(F)cc2)c2ccc(F)cc2)CC1` [Pimozide] + Nc1nc2[nH]cc(CCc3ccc(C(=O)N[C@@H](CCC(=O)O)C(=O)O)cc3)c2c(=O)[nH]1 [Pemetrexed] (partner 0.2 µM) was tested, and the relative viability (NCI-H522; first compound 0.08 µM) was 1.04, the relative viability (NCI-H522; first compound 0.253 µM) was 0.848 and the relative viability (NCI-H522; first compound 0.8 µM) was 0.832. It also gave a relative viability (NCI-H522; first compound 2.53 µM) of 0.818, a relative viability (NCI-H522; first compound 8 µM) of 0.904 and a relative viability (NCI-H1648; first compound 0.08 µM) of 0.818. It also gave a relative viability (NCI-H1648; first compound 0.8 µM) of 0.573, a relative viability (NCI-H1648; first compound 2.53 µM) of 0.673 and a relative viability (NCI-H1648; first compound 8 µM) of 0.612. The relative viability (NCI-H2342; first compound 0.08 µM) was 0.796, the relative viability (NCI-H2342; first compound 0.253 µM) was 0.757 and the relative viability (NCI-H2342; first compound 0.8 µM) was 0.634. For the same compound, the relative viability (NCI-H2342; first compound 2.53 µM) was 0.749, the relative viability (NCI-H2342; first compound 8 µM) was 0.752 and the relative viability (NCI-H1563; first compound 0.08 µM) was 0.606. It also gave a relative viability (NCI-H1563; first compound 0.253 µM) of 0.849, a relative viability (NCI-H1563; first compound 0.8 µM) of 0.745 and a relative viability (NCI-H1563; first compound 2.53 µM) of 0.781. For the same compound, the relative viability (NCI-H1563; first compound 8 µM) was 0.734, the relative viability (SW 900; first compound 0.08 µM) was 0.483 and the relative viability (SW 900; first compound 0.253 µM) was 0.465. It also gave a relative viability (SW 900; first compound 2.53 µM) of 0.447 and a relative viability (SW 900; first compound 8 µM) of 0.418.

Compound `O=c1[nH]c2ccccc2n1C1CCN(CCCC(c2ccc(F)cc2)c2ccc(F)cc2)CC1` [Pimozide] + Nc1ncn([C@H]2C[C@H](O)[C@@H](CO)O2)c(=O)n1 [Decitabine] (partner 2 µM) has a relative viability (NCI-H522; first compound 0.08 µM) of 0.679, a relative viability (NCI-H522; first compound 0.253 µM) of 0.693 and a relative viability (NCI-H522; first compound 0.8 µM) of 0.615. For the same compound, the relative viability (NCI-H522; first compound 2.53 µM) was 0.698, the relative viability (NCI-H522; first compound 8 µM) was 0.771 and the relative viability (NCI-H1648; first compound 0.08 µM) was 0.392. For the same compound, the relative viability (NCI-H1648; first compound 0.8 µM) was 0.466, the relative viability (NCI-H1648; first compound 2.53 µM) was 0.55 and the relative viability (NCI-H1648; first compound 8 µM) was 0.517. It also gave a relative viability (NCI-H2342; first compound 0.08 µM) of 0.698, a relative viability (NCI-H2342; first compound 0.253 µM) of 0.74 and a relative viability (NCI-H2342; first compound 0.8 µM) of 0.715. The relative viability (NCI-H2342; first compound 2.53 µM) was 0.746, the relative viability (NCI-H2342; first compound 8 µM) was 0.725 and the relative viability (SW 900; first compound 0.08 µM) was 0.451. For the same compound, the relative viability (SW 900; first compound 0.253 µM) was 0.415, the relative viability (SW 900; first compound 2.53 µM) was 0.548 and the relative viability (SW 900; first compound 8 µM) was 0.472. For the same compound, the relative viability (A549; first compound 0.08 µM) was 0.307, the relative viability (A549; first compound 0.253 µM) was 0.208 and the relative viability (A549; first compound 0.8 µM) was 0.211. For the same compound, the relative viability (A549; first compound 2.53 µM) was 0.312 and the relative viability (A549; first compound 8 µM) was 0.199.

With `O=c1[nH]c2ccccc2n1C1CCN(CCCC(c2ccc(F)cc2)c2ccc(F)cc2)CC1` [Pimozide] + O=C(CCCCCCC(=O)Nc1ccccc1)NO [Vorinostat] (partner 1 µM) the relative viability (NCI-H522; first compound 0.08 µM) was 0.848, the relative viability (NCI-H522; first compound 0.253 µM) was 0.908 and the relative viability (NCI-H522; first compound 0.8 µM) was 0.673. The relative viability (NCI-H522; first compound 2.53 µM) was 0.817, the relative viability (NCI-H522; first compound 8 µM) was 0.81 and the relative viability (NCI-H1648; first compound 0.08 µM) was 0.315. The relative viability (NCI-H1648; first compound 0.8 µM) was 0.527, the relative viability (NCI-H1648; first compound 2.53 µM) was 0.228 and the relative viability (NCI-H1648; first compound 8 µM) was 0.347. For the same compound, the relative viability (NCI-H2342; first compound 0.08 µM) was 0.778, the relative viability (NCI-H2342; first compound 0.253 µM) was 0.77 and the relative viability (NCI-H2342; first compound 0.8 µM) was 0.658. It also gave a relative viability (NCI-H2342; first compound 2.53 µM) of 0.75, a relative viability (NCI-H2342; first compound 8 µM) of 0.696 and a relative viability (IA-LM; first compound 0.08 µM) of 0.931. The relative viability (IA-LM; first compound 0.253 µM) was 0.923, the relative viability (IA-LM; first compound 2.53 µM) was 0.913 and the relative viability (IA-LM; first compound 8 µM) was 0.99. The relative viability (SW 900; first compound 0.08 µM) was 0.655, the relative viability (SW 900; first compound 0.253 µM) was 0.45 and the relative viability (SW 900; first compound 2.53 µM) was 0.509. It also gave a relative viability (SW 900; first compound 8 µM) of 0.3.

`O=c1[nH]c2ccccc2n1C1CCN(CCCC(c2ccc(F)cc2)c2ccc(F)cc2)CC1` [Pimozide] + O=C(c1cc(Cc2n[nH]c(=O)c3ccccc23)ccc1F)N1CCN(C(=O)C2CC2)CC1 [Olaparib] (partner 8 µM) gave a relative viability (NCI-H522; first compound 0.08 µM) of 0.569, a relative viability (NCI-H522; first compound 0.253 µM) of 0.54 and a relative viability (NCI-H522; first compound 0.8 µM) of 0.751. For the same compound, the relative viability (NCI-H522; first compound 2.53 µM) was 0.592, the relative viability (NCI-H522; first compound 8 µM) was 0.72 and the relative viability (NCI-H1299; first compound 0.08 µM) was 0.983. For the same compound, the relative viability (NCI-H1299; first compound 0.253 µM) was 0.973, the relative viability (NCI-H1299; first compound 0.8 µM) was 0.931 and the relative viability (NCI-H1299; first compound 2.53 µM) was 0.948. The relative viability (NCI-H1299; first compound 8 µM) was 0.898, the relative viability (Calu-6; first compound 0.08 µM) was 0.651 and the relative viability (Calu-6; first compound 0.253 µM) was 0.568. The relative viability (Calu-6; first compound 0.8 µM) was 0.597, the relative viability (Calu-6; first compound 2.53 µM) was 0.575 and the relative viability (Calu-6; first compound 8 µM) was 0.425. For the same compound, the relative viability (NCI-H1648; first compound 0.08 µM) was 0.805, the relative viability (NCI-H1648; first compound 0.8 µM) was 0.522 and the relative viability (NCI-H1648; first compound 2.53 µM) was 0.619. For the same compound, the relative viability (NCI-H1648; first compound 8 µM) was 1.1, the relative viability (NCI-H2342; first compound 0.08 µM) was 0.438 and the relative viability (NCI-H2342; first compound 0.253 µM) was 0.355. For the same compound, the relative viability (NCI-H2342; first compound 0.8 µM) was 0.397, the relative viability (NCI-H2342; first compound 2.53 µM) was 0.403 and the relative viability (NCI-H2342; first compound 8 µM) was 0.411. For the same compound, the relative viability (NCI-H1703; first compound 0.08 µM) was 0.352, the relative viability (NCI-H1703; first compound 0.253 µM) was 0.324 and the relative viability (NCI-H1703; first compound 0.8 µM) was 0.374. The relative viability (NCI-H1703; first compound 2.53 µM) was 0.439, the relative viability (NCI-H1703; first compound 8 µM) was 0.341 and the relative viability (IA-LM; first compound 0.08 µM) was 0.84. It also gave a relative viability (IA-LM; first compound 0.253 µM) of 0.737, a relative viability (IA-LM; first compound 0.8 µM) of 0.873 and a relative viability (IA-LM; first compound 2.53 µM) of 0.82. The relative viability (IA-LM; first compound 8 µM) was 0.812, the relative viability (SW 900; first compound 0.08 µM) was 0.955 and the relative viability (SW 900; first compound 0.253 µM) was 0.893. It also gave a relative viability (SW 900; first compound 2.53 µM) of 0.839, a relative viability (SW 900; first compound 8 µM) of 0.892 and a relative viability (EBC-1; first compound 0.08 µM) of 0.651. It also gave a relative viability (EBC-1; first compound 0.253 µM) of 0.695, a relative viability (EBC-1; first compound 0.8 µM) of 0.723 and a relative viability (EBC-1; first compound 2.53 µM) of 0.626. It also gave a relative viability (EBC-1; first compound 8 µM) of 0.676, a relative viability (A549; first compound 0.08 µM) of 0.237 and a relative viability (A549; first compound 0.253 µM) of 0.319. It also gave a relative viability (A549; first compound 0.8 µM) of 0.271, a relative viability (A549; first compound 2.53 µM) of 0.34 and a relative viability (A549; first compound 8 µM) of 0.347.
